Experimental data as given in patent publication US20070060620A1, “Use of RAR retinoid agonists to increase sperm count and sperm mobility in males” (priority 2005, published 2007).

Key:
[1] = tested on: sperm count and sperm motility; conditions: oral retinoids used for psoriasis or acne; cited from earlier work
[2] = plasma levels and half-life after clinical dosing with tazarotene; type: in vivo
Text: Thus, tazarotene and other RAR-specific retinoids are used in the method of the present invention to help with male infertility that is due to low sperm counts and/or low sperm motility. Furthermore, retinoids such as tazarotene may be used in any situation in which couples are trying to conceive, where a boost to sperm production/motility could bring about an increase in the chances that a female could become pregnant. As a practical matter, since retinoids at doses likely to be effective in these circumstances are highly teratogenic, an unintended effect might arise from the transfer of the retinoid to a female in the ejaculate of the male. […] Thus, in a period of 3 days, levels of retinoid in plasma (and also in seminal fluid) would be less than 2%, and after about one week would be less than 0.01% of the original levels. Clinical dosing with tazarotene (eg at 3-6 mg) provide levels of tazarotenic acid (the major metabolite of tazarotene) in plasma of about 75-150 ng/mL study. Thus, in 3 days, plasma levels would be expected to drop to about 2-3 ng/mL (endogenous levels of retinoid agonists such as tretinoin, isotretinoin and 4-oxo-13-cis retinoic acid may easily total over 6 ng/mL). Sperm count and motility are likely to remain elevated for some time, since sperm maturation occurs over a period of 72-74 days.

[3] = phase 2 studies in patients with psoriasis and acne: systemic side-effect profile; type: in vivo, human; conditions: compared with acitretin/etretinate and isotretinoin

SMILES | effect on sperm count and sperm motility [1] | levels of retinoid in plasma (and also in seminal fluid) relative to the original levels ([2]; after about one week of washout) | half-life ([2]; human, plasma, read-out: effective half-life in plasma) | levels of retinoid in plasma (and also in seminal fluid) relative to the original levels ([2]; in a period of 3 days of washout) | systemic side-effect profile [3]
COc1cc(C)c(/C=C/C(C)=C/C=C/C(C)=C/C(=O)O)c(C)c1C [acitretin] | increase in sperm count and sperm motility | – | – | – | –
CC1=C(/C=C/C(C)=C/C=C/C(C)=C\C(=O)O)C(C)(C)CCC1 [isotretinoin] | increase in sperm count and sperm motility | – | – | – | –
CCOC(=O)/C=C(C)/C=C/C=C(C)/C=C/c1c(C)cc(OC)c(C)c1C [etretinate] | increase in sperm count and sperm motility | – | – | – | –
CCOC(=O)c1ccc(C#Cc2ccc3c(c2)C(C)(C)CCS3)nc1 [tazarotene] | – | less than 0.01% | 7 to 12 h | less than 2% | far better than those of acitretin/etretinate and isotretinoin
